Results published in ChEMBL document CHEMBL5113482, “Discovery of fused benzimidazole-imidazole autophagic flux inhibitors for treatment of triple-negative breast cancer” (Eur J Med Chem, 2022).
Calls of active or inactive are those of the source. The rule behind the calls is not given here.

Legend:
[1] = test system: MDA-MB-231; assay: Induction of mitochondrial membrane potential loss in human MDA-MB-231 cells at 20 uM measured after 48 hrs by JC-1 staining based assay relative to control; format: functional
[2] = test system: MDA-MB-468; assay: Antiproliferative activity against human MDA-MB-468 cells assessed as cell growth inhibition measured after 48 hrs by MTT assay; format: functional, cell-based; conditions: MDA-MB-468, 48 h
[3] = test system: HCT-116; assay: Antiproliferative activity against human HCT-116 cells assessed as cell growth inhibition measured after 48 hrs by MTT assay; format: functional, cell-based; conditions: HCT-116, 48 h
[4] = test system: ASPC1; assay: Antiproliferative activity against human ASPC cells assessed as cell growth inhibition measured after 48 hrs by MTT assay; format: functional, cell-based; conditions: ASPC1, 48 h
[5] = test system: PANC-1; assay: Antiproliferative activity against human PANC cells assessed as cell growth inhibition measured after 48 hrs by MTT assay; format: functional, cell-based; conditions: PANC-1, 48 h
[6] = test system: MDA-MB-231; assay: Antiproliferative activity against human MDA-MB-231 cells assessed as reduction in cell count by microscopy; format: functional, cell-based
[7] = test system: MDA-MB-468; assay: Antiproliferative activity against human MDA-MB-468 cells assessed as reduction in cell count by microscopy; format: functional, cell-based
[8] = test system: MDA-MB-231; assay: Inhibition of colony formation in human MDA-MB-231 cells at 5 to 20 umol/l pretreated for 48 hrs followed by replacement of fresh medium and measured after 15 days by crystal violet staining based assay; format: functional, cell-based; conditions: dose 5-20 µmol/L
[9] = test system: MDA-MB-231; assay: Inhibition of autophagy in human MDA-MB-231 cells assessed as increase in LC3B-II expression measured after 48 hrs by immunofluorescence analysis; format: functional, cell-based; conditions: dose 5-20 µM
[10] = test system: MDA-MB-468; assay: Induction of DNA damage in human MDA-MB-468 cells assessed as increase in gamma-H2AX accumulation measured after 48 hrs by immunofluorescence analysis; format: functional, cell-based
[11] = molecular target: Serine-protein kinase ATM (Homo sapiens) (UniProt Q13315); assay: Activation of ATM phosphorylation in human MDA-MB-231 cells at 5 to 20 uM measured after 6 to 48 hrs by Western blot analysis; format: cell-based; conditions: filed as activator, dose 5-20 µM, time 6-48 hrs
Sequence of Serine-protein kinase ATM (Homo sapiens) (Q13315 whole entry): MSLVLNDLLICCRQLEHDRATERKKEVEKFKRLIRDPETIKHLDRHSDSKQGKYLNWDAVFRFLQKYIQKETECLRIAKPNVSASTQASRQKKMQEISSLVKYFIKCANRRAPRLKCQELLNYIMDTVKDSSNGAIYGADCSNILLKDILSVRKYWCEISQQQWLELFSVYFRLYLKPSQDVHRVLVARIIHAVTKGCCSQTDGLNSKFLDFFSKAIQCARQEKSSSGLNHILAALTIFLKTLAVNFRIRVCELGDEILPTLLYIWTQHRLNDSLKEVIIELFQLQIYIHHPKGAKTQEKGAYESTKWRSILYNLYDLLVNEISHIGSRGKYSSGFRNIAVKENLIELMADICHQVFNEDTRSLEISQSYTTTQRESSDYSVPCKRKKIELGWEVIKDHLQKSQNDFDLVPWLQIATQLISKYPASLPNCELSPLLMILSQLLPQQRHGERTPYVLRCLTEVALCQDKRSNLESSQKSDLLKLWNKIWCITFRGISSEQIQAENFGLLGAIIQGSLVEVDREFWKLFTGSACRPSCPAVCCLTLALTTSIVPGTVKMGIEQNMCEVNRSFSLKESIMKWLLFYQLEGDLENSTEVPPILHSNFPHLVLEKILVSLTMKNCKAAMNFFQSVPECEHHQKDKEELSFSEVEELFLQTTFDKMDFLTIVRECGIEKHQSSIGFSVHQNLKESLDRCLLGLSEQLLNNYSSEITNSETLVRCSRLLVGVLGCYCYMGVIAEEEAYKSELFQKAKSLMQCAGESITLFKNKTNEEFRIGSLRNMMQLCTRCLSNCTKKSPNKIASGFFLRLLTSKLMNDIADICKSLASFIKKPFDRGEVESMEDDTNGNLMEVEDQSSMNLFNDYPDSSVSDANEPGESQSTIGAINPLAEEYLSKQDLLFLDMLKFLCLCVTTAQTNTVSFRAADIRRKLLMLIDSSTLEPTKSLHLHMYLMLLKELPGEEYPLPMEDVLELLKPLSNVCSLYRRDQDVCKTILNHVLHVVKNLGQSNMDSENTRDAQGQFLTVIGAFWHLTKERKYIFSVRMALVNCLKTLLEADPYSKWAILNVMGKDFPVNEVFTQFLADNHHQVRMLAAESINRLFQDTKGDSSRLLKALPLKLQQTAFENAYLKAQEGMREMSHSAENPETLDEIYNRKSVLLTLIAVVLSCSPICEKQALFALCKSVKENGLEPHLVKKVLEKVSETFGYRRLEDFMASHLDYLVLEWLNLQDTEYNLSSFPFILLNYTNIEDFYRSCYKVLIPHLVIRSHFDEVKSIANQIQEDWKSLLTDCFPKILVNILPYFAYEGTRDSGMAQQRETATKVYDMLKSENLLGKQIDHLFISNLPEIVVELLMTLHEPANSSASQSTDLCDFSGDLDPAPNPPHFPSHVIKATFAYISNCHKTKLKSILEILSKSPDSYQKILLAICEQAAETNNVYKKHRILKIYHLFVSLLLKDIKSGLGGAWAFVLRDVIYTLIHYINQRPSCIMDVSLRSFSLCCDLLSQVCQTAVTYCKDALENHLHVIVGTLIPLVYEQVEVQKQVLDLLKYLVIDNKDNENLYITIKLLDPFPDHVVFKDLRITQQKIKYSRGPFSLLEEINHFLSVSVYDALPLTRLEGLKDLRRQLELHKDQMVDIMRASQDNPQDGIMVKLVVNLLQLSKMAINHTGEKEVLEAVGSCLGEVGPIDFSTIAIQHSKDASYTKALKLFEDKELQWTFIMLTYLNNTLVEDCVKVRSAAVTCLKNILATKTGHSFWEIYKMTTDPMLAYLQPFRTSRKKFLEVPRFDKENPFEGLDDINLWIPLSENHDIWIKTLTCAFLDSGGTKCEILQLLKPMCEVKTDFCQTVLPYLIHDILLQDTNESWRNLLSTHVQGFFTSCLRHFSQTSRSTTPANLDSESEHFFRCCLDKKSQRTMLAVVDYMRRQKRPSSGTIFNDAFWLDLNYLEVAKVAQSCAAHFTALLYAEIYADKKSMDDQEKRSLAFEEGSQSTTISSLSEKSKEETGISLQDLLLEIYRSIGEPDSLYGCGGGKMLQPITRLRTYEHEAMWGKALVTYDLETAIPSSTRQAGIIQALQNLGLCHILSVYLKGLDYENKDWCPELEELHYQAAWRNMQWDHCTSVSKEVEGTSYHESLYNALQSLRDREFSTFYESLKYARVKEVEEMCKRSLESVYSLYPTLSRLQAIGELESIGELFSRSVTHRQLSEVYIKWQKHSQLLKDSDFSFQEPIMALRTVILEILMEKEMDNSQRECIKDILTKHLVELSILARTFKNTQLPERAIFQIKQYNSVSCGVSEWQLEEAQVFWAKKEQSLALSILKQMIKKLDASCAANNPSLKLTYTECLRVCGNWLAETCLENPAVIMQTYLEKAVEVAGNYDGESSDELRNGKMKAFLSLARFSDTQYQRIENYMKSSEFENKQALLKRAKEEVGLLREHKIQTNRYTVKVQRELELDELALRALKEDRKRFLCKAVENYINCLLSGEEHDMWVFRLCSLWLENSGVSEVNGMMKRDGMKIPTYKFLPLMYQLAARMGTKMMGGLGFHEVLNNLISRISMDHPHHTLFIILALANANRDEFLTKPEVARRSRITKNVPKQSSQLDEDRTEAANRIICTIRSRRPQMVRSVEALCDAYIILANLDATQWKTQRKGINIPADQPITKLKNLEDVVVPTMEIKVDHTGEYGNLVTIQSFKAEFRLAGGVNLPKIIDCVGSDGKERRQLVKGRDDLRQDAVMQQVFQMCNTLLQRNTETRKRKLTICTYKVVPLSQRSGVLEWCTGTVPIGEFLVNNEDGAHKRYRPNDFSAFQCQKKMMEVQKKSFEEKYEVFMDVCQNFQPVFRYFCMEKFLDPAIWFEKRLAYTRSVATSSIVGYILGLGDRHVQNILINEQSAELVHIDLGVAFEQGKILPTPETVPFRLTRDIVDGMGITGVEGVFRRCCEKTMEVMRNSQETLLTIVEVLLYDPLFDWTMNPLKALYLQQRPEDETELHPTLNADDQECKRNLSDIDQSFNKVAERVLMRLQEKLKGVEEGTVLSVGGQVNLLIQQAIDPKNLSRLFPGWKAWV

[12] = molecular target: T1, Nibrin (Homo sapiens) (UniProt O60934); assay: Activation of NBS1 phosphorylation in human MDA-MB-468 cells at 5 to 20 uM measured after 6 to 48 hrs by Western blot analysis; format: cell-based; conditions: filed as activator, dose 5-20 µM, time 6-48 hrs
T1 sequence (whole entry): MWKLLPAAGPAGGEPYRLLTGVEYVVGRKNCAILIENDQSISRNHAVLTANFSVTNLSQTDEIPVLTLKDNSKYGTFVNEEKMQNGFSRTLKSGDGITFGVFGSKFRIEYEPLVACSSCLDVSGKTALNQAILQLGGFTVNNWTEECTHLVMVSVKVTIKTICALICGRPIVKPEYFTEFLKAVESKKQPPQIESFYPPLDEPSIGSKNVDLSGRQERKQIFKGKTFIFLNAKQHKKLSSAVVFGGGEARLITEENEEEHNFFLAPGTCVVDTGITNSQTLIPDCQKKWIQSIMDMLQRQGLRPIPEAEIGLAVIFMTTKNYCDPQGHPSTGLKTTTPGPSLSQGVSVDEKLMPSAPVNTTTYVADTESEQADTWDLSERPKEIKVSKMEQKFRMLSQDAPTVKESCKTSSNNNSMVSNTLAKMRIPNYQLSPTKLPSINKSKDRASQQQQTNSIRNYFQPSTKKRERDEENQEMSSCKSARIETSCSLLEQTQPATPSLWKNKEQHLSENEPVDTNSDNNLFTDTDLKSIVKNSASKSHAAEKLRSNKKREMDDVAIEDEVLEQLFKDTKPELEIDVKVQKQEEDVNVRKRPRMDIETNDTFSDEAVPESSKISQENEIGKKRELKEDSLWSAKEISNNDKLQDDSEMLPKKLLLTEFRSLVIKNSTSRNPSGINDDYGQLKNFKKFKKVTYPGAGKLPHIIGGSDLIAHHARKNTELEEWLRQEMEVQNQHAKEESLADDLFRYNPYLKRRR

[13] = test system: MDA-MB-231; assay: Induction of DNA damage in human MDA-MB-231 cells assessed as reduction in RAD51 expression measured after 6 to 48 hrs by Western blot analysis; format: functional, cell-based; conditions: dose 5-20 µM, time 6-48 hrs, DDE = dose-dependent effect
[14] = test system: MDA-MB-231; assay: Inhibition of autophagic flux in human MDA-MB-231 cells assessed as increase in nuclear p62 expression measured after 48 hrs by immunofluorescence analysis; format: functional, cell-based; conditions: dose 5-20 µM, DDE = dose-dependent effect
[15] = test system: MDA-MB-468; assay: Inhibition of autophagic flux in human MDA-MB-468 cells assessed as increase in nuclear p62 expression measured after 48 hrs by immunofluorescence analysis; format: functional, cell-based; conditions: dose 5-20 µM, DDE = dose-dependent effect
[16] = test system: MDA-MB-231; assay: Inhibition of autophagic flux in human MDA-MB-231 cells assessed as increase in nuclear p62 expression measured after 48 hrs by Western blot analysis; format: functional, cell-based; conditions: dose 5-20 µM, DDE = dose-dependent effect
[17] = test system: MDA-MB-231; assay: Cell cycle arrest in human MDA-MB-231 cells assessed as increase in p21 expression measured after 48 hrs by Western blot analysis; format: functional, cell-based; conditions: dose 5-20 µM, DDE = dose-dependent effect
[18] = test system: MDA-MB-231; assay: Cell cycle arrest in human MDA-MB-231 cells assessed as increase in CHK1 phosphorylation at Ser 345 residue measured after 48 hrs by Western blot analysis; format: functional, cell-based; conditions: dose 5-20 µM, DDE = dose-dependent effect
[19] = test system: MDA-MB-468; assay: Cell cycle arrest in human MDA-MB-468 cells assessed as reduction in cyclin A expression measured after 48 hrs by Western blot analysis; format: functional, cell-based; conditions: dose 5-20 µM, DDE = dose-dependent effect
[20] = test system: MDA-MB-468; assay: Cell cycle arrest in human MDA-MB-468 cells assessed as reduction in CDK2 expression measured after 48 hrs by Western blot analysis; format: functional, cell-based; conditions: dose 5-20 µM, DDE = dose-dependent effect
[21] = test system: MDA-MB-468; assay: Cell cycle arrest in human MDA-MB-468 cells assessed as increase in CHK2 phosphorylation at Thr 68 residue measured after 48 hrs by Western blot analysis; format: functional, cell-based; conditions: dose 5-20 µM, DDE = dose-dependent effect
[22] = test system: MDA-MB-468; assay: Induction of mitochondrial membrane potential loss in human MDA-MB-468 cells at 20 uM measured after 48 hrs by JC-1 staining based assay relative to control; format: functional
[23] = test system: MDA-MB-231; assay: Induction of apoptosis in human MDA-MB-231 cells assessed as increase in cleaved caspase-9 expression measured after 48 hrs by Western blot analysis; format: functional, cell-based; conditions: dose 5-20 µM, DDE = dose-dependent effect
[24] = test system: MDA-MB-231; assay: Induction of apoptosis in human MDA-MB-231 cells assessed as increase in cleaved PARP expression measured after 48 hrs by Western blot analysis; format: functional, cell-based; conditions: dose 5-20 µM, DDE = dose-dependent effect
[25] = test system: MDA-MB-468; assay: Induction of apoptosis in human MDA-MB-468 cells assessed as increase in Bak expression measured after 48 hrs by Western blot analysis; format: functional, cell-based; conditions: dose 5-20 µM, DDE = dose-dependent effect
[26] = test system: MDA-MB-468; assay: Induction of apoptosis in human MDA-MB-468 cells assessed as increase in Bim expression measured after 48 hrs by Western blot analysis; format: functional, cell-based; conditions: dose 5-20 µM, DDE = dose-dependent effect
[27] = test system: MDA-MB-468; assay: Induction of apoptosis in human MDA-MB-468 cells assessed as increase in Bax expression measured after 48 hrs by Western blot analysis; format: functional, cell-based; conditions: dose 5-20 µM, DDE = dose-dependent effect
[28] = test system: MDA-MB-231; assay: Antitumor activity against human MDA-MB-231 cells xenografted in ip dosed NOD/SCID mouse assessed as reduction in tumor growth administered at 3 days interval for 24 days and measured during compound dosing by caliper method; format: functional, organism-based; conditions: dose 5-15 mg/kg, time 24.0 day, DDE = dose-dependent effect
[29] = test system: MDA-MB-231; assay: Antitumor activity against human MDA-MB-231 cells xenografted in ip dosed NOD/SCID mouse assessed as upregulation of LC3B-II expression administered at 3 days interval for 24 days and measured on day 25 by Western blot analysis; format: functional, organism-based; conditions: dose 5-15 mg/kg, time 25.0 day, DDE = dose-dependent effect

`O=C(NC1CCCCC1)c1[nH]cnc1-c1nc2ccccc2[nH]1` gave an Activity [1] of 50%, an IC50 [2] of 6.03 µM and an IC50 [3] of 35.5 µM. For the same compound, the IC50 [4] was 26.9 µM, the IC50 [5] was 19.2 µM and the Activity [6] was “Active”. The Activity [7] was “Active”, the inhibition [8] was “Active” and the inhibition [9] was “Active”. The Activity [10] was “Active”, the Activity [11] was “Active” and the Activity [12] was “Active”. For the same compound, the Activity [13] was “Dde”, the inhibition [14] was “Dde” and the inhibition [15] was “Dde”. The inhibition [16] was “Dde”, the Activity [17] was “Dde” and the Activity [18] was “Dde”. For the same compound, the Activity [19] was “Dde”, the Activity [20] was “Dde” and the Activity [21] was “Dde”. The Activity [22] was 50%, the Activity [23] was “Dde” and the Activity [24] was “Dde”. For the same compound, the Activity [25] was “Dde”, the Activity [26] was “Dde” and the Activity [27] was “Dde”. The TGI [28] was “Dde” and the Activity [29] was “Dde”.
